In patent US9346957B2, “Cell permeable, fluorescent dye” (École Polytechnique Fédérale de Lausanne (EPFL), priority 2011, dated 2016):

How the values were obtained:
SNAP-tag fusion proteins = assay: Live cell labeling of SNAP-tag fusion proteins, fluorescence imaging; assay type: cell-based; details: living mammalian cells, incubation with dye
Protocol: (§1) As a representative example for the labeling of a SNAP-tag fusion with BG-Sir650, the labeling and fluorescence imaging of SNAP-Cep41 (microtubule binding protein) fusion protein in U2OS cells is described. SNAP-Cep41 was expressed from episomal pEBTet plasmid encoding puromycin resistance under a doxycycline inducible promoter in U2OS cells. Prior to induction of expression, cells were selected by growing them in complete Dulbecco's Modified Eagle's Medium (DMEM) with 1 μg/ml puromycin for at least 1.5 weeks. SNAP-Cep41 fusion protein expression was induced for 48 h by adding to complete DMEM grow medium doxycycline at final concentration of 0.1 μg/ml before staining procedure. Living cells were stained by replacing old media with complete DMEM growth media containing 5 μM BG-SiR650, and incubated for 30 min at 37° C. in 5% CO2 incubator. Cells were washed two times with Hank's Buffered Salt Solution (HBSS) for 5 min and once with media for 1 h. Before imaging, growth media was replaced with HBSS. Images (FIG. 2A) were acquired on a confocal fluorescence microscope as z-stacks and presented as maximum intensity projections. For the imaging of fixed cells, living cells were labeled with 1 μM BG-Sir650 for 30 min at 37° C. […] Images (FIG. 2B) were acquired on a confocal fluorescence microscope as z-stack and presented as maximum intensity projections. […]

mammalian cells = assay: Membrane permeability, shown by incubating cells with the dye and fluorescence imaging; assay type: cell-based; details: simple incubation with the dye
Protocol: as §1

## CN(C)c1ccc2c(c1)[Si](C)(C)C1=CC(=[N+](C)C)C=CC1=C2c1cc(C(=O)NCc2ccc(COc3nc(N)nc4[nH]cnc34)cc2)ccc1C(=O)[O-] [SiR650-6BG]
SNAP-tag fusion proteins
  specific labeling of SNAP-tag fusion proteins in living cells: permits the specific labeling of SNAP-tag fusion proteins
Mammalian cells
  membrane permeability: excellent membrane permeability
